Data as given in the CheMixHub ionic liquid set.

Assay: xn = mol fraction of the nth substance listed

CCC(=O)[O-].OCC[NH2+]c1ccccc1 + O
303.15 K, 100 kPa
Conditions	electrical conductivity [S/m]
x2 = 0.01476	0.000353
x2 = 0.03394	0.000354
x2 = 0.0417	0.000355
x2 = 0.05414	0.000356

CCCC(=O)[O-].OCC[NH2+]c1ccccc1 + O
303.15 K, 100 kPa
Conditions	electrical conductivity [S/m]
x2 = 0.0163	0.000469
x2 = 0.03811	0.00047
x2 = 0.05476	0.000471
x2 = 0.07271	0.000472

CCCCCCCCCCCCCC[P+](CCCCCC)(CCCCCC)CCCCCC.[Br-] + O
100 kPa, x2 = 0.68
Conditions	viscosity [mPa·s]
303.15 K	180.5
353.15 K	22.85

CCCCCC[n+]1ccccc1.O=[N+]([O-])[O-] + O
298.15 K, 101 kPa
Conditions	viscosity [mPa·s]
x1 = 0.0002072	0.9698
x1 = 0.0003855	1.002
x1 = 0.0005691	1.012
x1 = 0.0007311	1.033
x1 = 0.0009416	1.045
x1 = 0.001112	1.058
x1 = 0.001262	1.069
x1 = 0.00145	1.101
x1 = 0.001634	1.107
x1 = 0.001826	1.122
x1 = 0.003609	1.219
x1 = 0.005402	1.312
x1 = 0.007153	1.39
x1 = 0.008806	1.453
x1 = 0.01076	1.515
x1 = 0.01248	1.581
x1 = 0.01427	1.646
x1 = 0.01599	1.702
x1 = 0.01772	1.758

CCCCCn1cc[n+](CCCCC)c1.O=S(=O)([N-]S(=O)(=O)C(F)(F)F)C(F)(F)F + O
100 kPa, x2 = 0.1575
Conditions	viscosity [mPa·s]
313.15 K	35.17
338.15 K	15.44
358.15 K	9.31

CCCC[N+]1(C)CCCCC1.N#C[N-]C#N + O
100 kPa
Conditions	viscosity [mPa·s]
298.15 K, x2 = 0.2122	73
328.15 K, x2 = 0.7349	6.6
333.15 K, x2 = 0.6419	8

CCCC[N+]1(C)CCCCC1.N#C[S-] + O
101 kPa
Conditions	viscosity [mPa·s]
318.15 K, x2 = 0.3741	57.3
328.15 K, x2 = 0.2774	59.4
328.15 K, x2 = 0.3741	37.2
328.15 K, x2 = 0.6302	13.48
338.15 K, x2 = 0.2774	39.6
348.15 K, x2 = 0.5111	11.92

CCCC[n+]1ccc(C)cc1.F[B-](F)(F)F + O
298.15 K, 101 kPa
Conditions	electrical conductivity [S/m]
x1 = 0.0002198	0.131
x1 = 0.0004197	0.206
x1 = 0.0007725	0.357
x1 = 0.001123	0.486
x1 = 0.001267	0.554
x1 = 0.001481	0.638
x1 = 0.00182	0.757
x1 = 0.00217	0.871
x1 = 0.002506	0.979
x1 = 0.002721	1.01
x1 = 0.002887	1.07
x1 = 0.003188	1.19
x1 = 0.003487	1.27
x1 = 0.003843	1.36
x1 = 0.004144	1.44
x1 = 0.004481	1.52

CCCC[n+]1ccccc1.N#C[N-]C#N + O
100 kPa
Conditions	electrical conductivity [S/m]	viscosity [mPa·s]
298.15 K, x1 = 0.9563	–	30.06
298.15 K, x1 = 0.9642	0.931	–
303.15 K, x1 = 0.9189	1.17	–
303.15 K, x1 = 0.9338	1.14	–
303.15 K, x1 = 0.9488	1.12	–
303.15 K, x1 = 0.9563	–	24.67
313.15 K, x1 = 0.926	–	16.69
313.15 K, x1 = 0.9563	–	17.57
313.15 K, x1 = 0.9642	1.54	–
318.15 K, x1 = 0.926	–	14.38
318.15 K, x1 = 0.9338	1.89	–
318.15 K, x1 = 0.9722	–	15.54
323.15 K, x1 = 0.9563	–	12.69
323.15 K, x2 = 0.01155	–	13.56
328.15 K, x1 = 0.926	–	10.62
328.15 K, x1 = 0.9412	–	10.83
333.15 K, x1 = 0.9488	2.75	–
333.15 K, x1 = 0.9563	–	9.77
333.15 K, x1 = 0.9642	2.7	–
338.15 K, x1 = 0.9412	–	8.47

CCOCn1cc[n+](C)c1.O=S(=O)([N-]S(=O)(=O)C(F)(F)F)C(F)(F)F + O
Conditions	viscosity [mPa·s]
333 K, 101 kPa, x1 = 0.8415	11.7

CCn1cc[n+](C)c1.N[C@@H](CO)C(=O)[O-] + O
100 kPa
Conditions	electrical conductivity [S/m]
303.15 K, x1 = 0.9276	0.0944
308.15 K, x1 = 0.9133	0.132
313.15 K, x1 = 0.9133	0.169
313.15 K, x1 = 0.9276	0.166
318.15 K, x1 = 0.8699	0.223
318.15 K, x1 = 0.884	0.221
323.15 K, x1 = 0.9133	0.269
328.15 K, x1 = 0.884	0.346
333.15 K, x1 = 0.8699	0.436
333.15 K, x1 = 0.884	0.432
338.15 K, x1 = 0.9276	0.511

OC[C@H]1O[C@@](CO)(O[C@H]2O[C@H](CO)[C@@H](O)[C@H](O)[C@H]2O)[C@@H](O)[C@@H]1O + O + CCCCCC[n+]1ccn(C)c1.[Br-]
viscosity [mPa·s], 100 kPa
Conditions	x1 = 0.001819, x3 = 0	x1 = 0.002681, x3 = 0	x1 = 0.003595, x3 = 0	x1 = 0.004483, x3 = 0	x1 = 0.006262, x3 = 0	x1 = 0.007151, x3 = 0	x1 = 0.008891, x3 = 0
288.15 K	1.252	1.306	1.362	1.414	1.517	1.571	1.678
298.15 K	0.98	1.021	1.065	1.104	1.182	1.222	1.295
308.15 K	0.789	0.822	0.855	0.886	0.949	0.978	1.035
318.15 K	0.657	0.683	0.709	0.733	0.783	0.805	0.86

Cc1ncc(C[n+]2csc(CCO)c2C)c(N)n1.Cl.[Cl-] + O + CCCC[N+](CCCC)(CCCC)CCCC.O=S(=O)([O-])O
viscosity [mPa·s], 101 kPa
Conditions	x1 = 0.0003639, x3 = 0	x1 = 0.0006573, x3 = 0	x1 = 0.0009524, x3 = 0	x1 = 0.001251, x3 = 0	x1 = 0.001553, x3 = 0	x1 = 0.001856, x3 = 0
298.15 K	0.9024	0.914	0.9244	0.9372	0.9488	0.959
308.15 K	0.7301	0.7393	0.7485	0.7576	0.768	0.7772
318.15 K	0.6037	0.6116	0.6196	0.6275	0.6343	0.6413

O=C1O[C@H]([C@@H](O)CO)C(O)=C1O + O + CCCC[N+](CCCC)(CCCC)CCCC.O=S(=O)([O-])O
viscosity [mPa·s], 101 kPa
Conditions	x1 = 0.0003639, x3 = 0	x1 = 0.0006573, x3 = 0	x1 = 0.0009524, x3 = 0	x1 = 0.001251, x3 = 0	x1 = 0.001553, x3 = 0	x1 = 0.001856, x3 = 0
298.15 K	0.899	0.904	0.91	0.916	0.922	0.927
308.15 K	0.724	0.728	0.732	0.738	0.743	0.748
318.15 K	0.6	0.604	0.608	0.612	0.616	0.621

NC(N)=O + O + CCCC[n+]1ccn(C)c1.F[B-](F)(F)F
298.15 K, 100 kPa
Conditions	viscosity [mPa·s]
x1 = 0.008492, x2 = 0.9402	1.98
x1 = 0.01695, x2 = 0.9318	2.01
x1 = 0.02496, x2 = 0.9237	2.06
x1 = 0.03322, x2 = 0.9155	2.05
x1 = 0.0408, x2 = 0.9079	2.15

CC(=O)[O-].[Na+] + O + CCCC[n+]1ccn(C)c1.N#C[S-]
Conditions	viscosity [mPa·s]
323.15 K, 101 kPa, x1 = 0.08925, x2 = 0.9088	2.515
